Assay [1] has as its system Wolbachia of the target parasite, Brugia malayi. In words: In vitro microfilariae (Mf) Brugia malayi screen, wsp/gst qPCR. The following applies: B. malayi Mf, 6 days; concentration stands in the drawing (not visible). It counts as cell-based. The protocol:
An in vitro microfilariae (Mf) assay was used to screen against Wolbachia of the target parasite, Brugia malayi. The Mf were obtained by peritoneal lavage of gerbils (Meriones unguiculatus) harbouring a patent infection of Brugia malayi as described previously (Griffiths et al., 2010, Lab Animal).
Mf were purified using a PD-10 desalting column (Fisher) followed by centrifugation (1200 rpm for 5 minutes at room temperature) then re-suspended in filter-sterilised culture medium consisting of RPMI supplemented with heat-inactivated Foetal Calf Serum (HI-FCS), 1% Penicillin-Streptomycin and 1% Amphotericin B.
After determining the concentration of Mf, the stock solution was diluted in culture medium to ensure a final concentration of 8000 Mf/well of a 96 well plate (100 μl per well). Compounds to be tested (10 mM stock in 100% DMSO) were diluted to appropriate working concentrations in culture medium and 100 μl was added to the appropriate wells of the 96 well plate containing the Mf. Five replicates were used for each compound and each plate contained doxycycline (5 μM) and vehicle (DMSO) controls. The plates were incubated at 37° C., 5% CO2, for 6 days.
On day 6, a visual assessment of motility was performed and wells scored from 0 to 4 (where 0=no movement and 4=highly motile) in order to assess whether there were any direct effects against the Mf. To perform the anti-Wolbachia readout, DNA was extracted from each individual well using the QIAmp DNA Mini Kit (Qiagen) ‘DNA Purification from Tissues’ protocol.
The number of Wolbachia present in Mf was assessed by quantification of the Wolbachia surface protein (wsp) gene copy number and normalised to the nematode glutathione S-transferase (gst) gene by qPCR based on methods described by McGarry et al., 2004, Mol Biochem Parasitol. DNA samples were amplified in duplicate in the following 20 μl reactions containing 1× QuantiTect SYBR Green PCR master mix (Qiagen): for wsp, 0.3 μM each of forward ([…]) and reverse ([…]) primer, 3 mM MgCl2 and 2 μl of DNA. For gst, 0.35 μM of forward ([…]) and reverse primer (ATCACGGACGCCTTCACAG), 3.5 mM MgCl2 and 1 μl of DNA. qPCR was performed using the Bio-Rad CFX384 C1000 thermal cycler (Bio-Rad laboratories LTD) with a denaturation step of 95° C. for 15 min then 40 cycles at 95° C. for 15 s, 57° C. (gst) or 60° C. (wsp) for 30 s, and 72° C. for 30 s. Quantification was determined by Bio-Rad CFX manager software by comparing the DNA samples to that of a standard curve generated from serial dilution of plasmid DNA of the appropriate gene. Data in Table 3 are expressed as a reduction in Wolbachia load in comparison to the vehicle control group and normalized by positive control (doxycycline at 5 μM).
On the technique in general: Quantitative PCR measures a nucleic acid by following its amplification.

The test system of assay [2] is Wolbachia in adult Brugia malayi. In words: Adult Brugia malayi mouse model, Wolbachia wsp qPCR. It counts as in vivo. An excerpt: (§1) In an adult Brugia malayi mouse model treatment groups (BALB/c CCR3−/− mice, 6-8 week old) received compounds by oral delivery for 7-28 days beginning at 6-10 weeks post-infection intraperitoneal with Brugia malayi third-stage larvae. Following treatment, at 12 weeks past-infection, adult worms and released microfilariae were recovered from the peritoneal cavity, counted and staged for sex. Genomic DNA was extracted from individual adult worms (10/group) and quantification of the Wolbachia surface protein (wBm-wsp) performed by quantitative PCR.
Treatment dosage unit is mg/kg (MK) and duration stated in days (d). Abbreviations: MIN (minocycline), bid (twice daily), Ms (mesylate). Data in Table 5A are expressed as a reduction in Wolbachia load in comparison to the vehicle control group.
(§2) Table 5B provides a comparison of two stereoisomers in the adult Brugia malayi mouse model above at a range of doses and durations of treatment. Data in Table 5B are expressed as a reduction in Wolbachia load in comparison to the vehicle control group.

The subject of assay [3] is Brugia malayi microfilariae. In words: Adult Brugia malayi mouse model, microfilaria production. It counts as in vivo. The following applies: Table 5B.
Excerpt: as §1, §2

The subject of assay [4] is Wolbachia in Brugia malayi larvae. In words: Larval Brugia malayi mouse model, Wolbachia wsp qPCR. The conditions noted are these: BALB/c IL4Rα−/− mice, oral; dose/duration stands in the drawing (not visible); larvae recovered 14 days post-infection. It counts as in vivo. An excerpt:
In a larval Brugia malayi mouse model treatment groups (BALB/c IL4Rα−/− mice, 6-8 week old) received compounds by oral delivery for 7 to 14 days commencing on the day of intraperitoneal infection with Brugia malayi third-stage larvae. At 14 days post-infection, larvae were recovered from the peritoneal cavity, counted, and length measured. Genomic DNA was extracted from individual worms (10/group) and quantification of the Wolbachia surface protein (wBm-wsp) gene copy numbers performed by quantitative PCR.
Treatment dosage unit is mg/kg (MK) and duration stated in days (d). Abbreviations: DOX (doxycycline), bid (twice daily), Ms (mesylate). Data in Table 4 are expressed as a reduction in Wolbachia load in comparison to the vehicle control group.

The test system of assay [5] is Wolbachia in adult male Onchocerca ochengi. In words: Adult Onchocerca ochengi mouse model, Wolbachia wsp qPCR. It counts as in vivo. The following applies: CB.17(BALB/c) SCID mice implanted with male O. ochengi, oral; dose/duration stands in the drawing (not visible). From the text: Viable male Onchocerca ochengi were aseptically isolated from naturally parasitized cattle. Between 10-11 male Onchocerca were surgically implanted into the peritoneal cavity of CB.17(BALB/c) SCID mice under anaesthesia. […] 38 Days after O. ochengi surgical implantation, mice were necropsied to recover the live worms. Genomic DNA was extracted from individual adult worms (10/group) and quantification of the O. ochengi-specific Wolbachia surface protein (wsp) performed by quantitative PCR. Data in Table 6 is expressed as a reduction in Wolbachia load in comparison to the vehicle control group.

Assay [6] concerns C6/36 Aedes albopictus cell line infected with Wolbachia pipientis (Wolbachia strain wAlbB). In words: In vitro insect cell line assay (anti-Wolbachia screen, SYTO 11 high content imaging). The following applies: read-out: In vitro anti-Wolbachia activity. It counts as cell-based. An outline of the steps: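 Wolbachia wAlbB-infected C6/36 Aedes albopictus cells were exposed to compounds at a final 5 μM for 7 days at 26 °C, with DMSO-medium wells as untreated controls. Cells were then stained with SYTO 11 for 15 min, imaged by high-content microscopy and scored by texture analysis.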

Setting [7] is: Table 5B, two stereoisomers at a range of doses and durations, dose/duration stands in the drawing (not visible).
Where [8] appears, read: two stereoisomers at a range of doses and durations, dose/duration stands in the drawing (not visible).
The mark [9] stands for this setting: Table 5A, BALB/c CCR3−/− mice, oral, dose/duration stands in the drawing (not visible).
Where [10] appears, read: 168 h, C6/36 Aedes albopictus cells infected with Wolbachia pipientis wAlbB, 7 days incubation, SYTO 11 imaging.

Read-outs that look alike come from different tables or passages of the source.

As to `FC1(F)CCN(c2nc(NCc3cccnc3C(F)(F)F)c3cccnc3n2)CC1` [drawing 686], in assay [1], the “% Reduction level normalised to DOX (5 μm)” value (“% Reduction level normalised” below) is on record as 98.2% and the “% Wolbachia reduction cf. DMSO” value turned out to be 88.0%. For `C[C@H]1COCCN1c1nc(NCc2cccnc2C(F)(F)F)c2cccnc2n1` [drawing 697], the “% Wolbachia reduction cf median Vehicle” value in assay [2] (setting [7]) is 97.8%. In addition, in assay [3] (setting [8]), the “% Microfilaria (Mf) production reduction cf median Vehicle” value is listed as 100%. On to `C[C@@H]1COCCN1c1nc(NCc2cccnc2C(F)(F)F)c2cccnc2n1` [drawing 698], for which, in assay [2] (setting [7]), the “% Wolbachia reduction cf median Vehicle” value came to 99.7%. Besides, in assay [3] (setting [8]), the “% Microfilaria (Mf) production reduction cf median Vehicle” value is listed as 100%. Turning to `FC1(F)CCN(c2nc(NCc3cccnc3C(F)(F)F)c3cccnc3n2)CC1` [drawing 690], the “% Wolbachia reduction cf median Vehicle” value in assay [4] came out at 99.84%.

Consider `C[C@H]1COCCN1c1nc(NCc2cccnc2C(F)(F)F)c2cccnc2n1` [drawing 696], for which, in assay [2] (setting [7]), the “% Wolbachia reduction cf median Vehicle” value is on record as 99.9%. Moreover, in assay [3] (setting [8]), the “% Microfilaria (Mf) production reduction cf median Vehicle” value turned out to be 100%. Take `C[C@@H]1COCCN1c1nc(NCc2cccnc2C(F)(F)F)c2cccnc2n1` [drawing 701]: the “% Wolbachia reduction cf median Vehicle” value in assay [2] (setting [7]) is reported as 82.2%. Moreover, the “% Microfilaria (Mf) production reduction cf median Vehicle” value in assay [3] (setting [8]) amounted to 91.4%. In the case of `C[C@@H]1COCCN1c1nc(NCc2cccnc2C(F)(F)F)c2cccnc2n1` [drawing 699], in assay [2] (setting [7]), the “% Wolbachia reduction cf median Vehicle” value turned out to be 99.6%. The “% Microfilaria (Mf) production reduction cf median Vehicle” value in assay [3] (setting [8]) was determined as 100%. Consider `CC(C)N(C)c1nc(NCc2cccnc2C(F)(F)F)c2cccnc2n1` [drawing 688], for which the “% Wolbachia reduction cf median Vehicle” value in assay [4] is 99.99%. In the case of `C[C@H]1COCCN1c1nc(NCc2cccnc2C(F)(F)F)c2cccnc2n1` [drawing 694], in assay [2] (setting [9]), the “% Wolbachia reduction cf median Vehicle” value is listed as 98.5%. `C[C@H]1COCCN1c1nc(NCc2cccnc2C(F)(F)F)c2cccnc2n1` [drawing 695]: the “% Wolbachia reduction cf median Vehicle” value in assay [2] (setting [7]) was 99.7%. Also, the “% Microfilaria (Mf) production reduction cf median Vehicle” value in assay [3] (setting [8]) is recorded as 100%.

Consider `FC1CCN(c2nc(NCc3cccnc3C(F)(F)F)c3cccnc3n2)CC1` [drawing 685], for which, in assay [1], the “% Reduction level normalised” value stood at 97.4% and the “% Wolbachia reduction cf. DMSO” value was 87.3%.

For `CC1COCCN1c1nc(NCc2cccnc2C(F)(F)F)c2cccnc2n1` (centres unmarked) [drawing 692], in assay [2] (setting [9]), the “% Wolbachia reduction cf median Vehicle” value turned out to be 97.8%. `C[C@H]1COCCN1c1nc(NCc2cccnc2C(F)(F)F)c2cccnc2n1` [drawing 702]: the “% Wolbachia reduction cf median Vehicle” value in assay [5] came to 96.2%. As to `CC(C)N(C)c1nc(NCc2cccnc2C(F)(F)F)c2cccnc2n1` [drawing 691], the “% Wolbachia reduction cf median Vehicle” value in assay [2] (setting [9]) is reported as 99.4%.

`CC1COCCN1c1nc(NCc2cccnc2C(F)(F)F)c2cccnc2n1` (centres unmarked) [drawing 689]: in assay [4], the “% Wolbachia reduction cf median Vehicle” value was determined as 99.91%. Take `CC1COCCN1c1nc(NCc2cccnc2C(F)(F)F)c2cccnc2n1` (centres unmarked) [drawing 693]: the “% Wolbachia reduction cf median Vehicle” value in assay [2] (setting [9]) stood at 98.8%. For the compound `CC1COCCN1c1nc(NCc2cccnc2C(F)(F)F)c2cccnc2n1` (centres unmarked) [drawing 684], in assay [1], the “% Reduction level normalised” value is 99.8% and the “% Wolbachia reduction cf. DMSO” value came to 89.4%. In the case of `C[C@@H]1COCCN1c1nc(NCc2cccnc2C(F)(F)F)c2cccnc2n1` [drawing 700], the “% Wolbachia reduction cf median Vehicle” value in assay [2] (setting [7]) came to 86.8%. For the same compound, the “% Microfilaria (Mf) production reduction cf median Vehicle” value in assay [3] (setting [8]) was determined as 100%. As for `FC(F)(F)c1ncccc1CNc1nc(N2CCC(Cl)CC2)nc2ncccc12` [drawing 687], in assay [1], the “% Reduction level normalised” value turned out to be 92.9% and the “% Wolbachia reduction cf. DMSO” value turned out to be 83.3%. Turning to `CC1COCCN1c1nc(NCc2cccnc2C(F)(F)F)c2cccnc2n1` (centres unmarked) [Example 193, 2-(3-methylmorpholino)-N-((2-(trifluoromethyl)pyridin-3-yl)methyl)pyrido[2,3-d]pyrimidin-4-amine], in assay [6] (setting [10]), the EC50 was in the range of 1 to 10 nM. As for `CN(C)c1ccc(O)c2c1C[C@H]1C[C@H]3[C@H](N(C)C)C(O)=C(C(N)=O)C(=O)[C@@]3(O)C(O)=C1C2=O` [MIN, minocycline, reference compound], the “% Wolbachia reduction cf median Vehicle” value in assay [2] (Table 5A, BALB/c CCR3−/− mice, oral, 25 MK bid + 28 d, worms recovered 12 weeks post-infection) worked out at 83.6%; in assay [2] (Table 5B, BALB/c CCR3−/− mice, oral, 25 MK bid + 28 d treatment + 14 d wash-out) it was 98.2%. Also, in assay [3] (BALB/c CCR3−/− mice, oral, 25 MK bid + 28 d treatment + 14 d wash-out), the “% Microfilaria (Mf) production reduction cf median Vehicle” value was found to be 100%. As to `CC(C)Nc1cc(NCc2cccnc2C(F)(F)F)c2cccnc2n1` [Example 165, N^2-isopropyl-N^4-((2-(trifluoromethyl)pyridin-3-yl)methyl)-1,8-naphthyridine-2,4-diamine], the EC50 in assay [6] (setting [10]) was 10 to 100 nM.

Consider `Cc1nc(NCc2ccc(F)cc2C(F)(F)F)c2ccccc2n1` [Example 73, N-(4-fluoro-2-(trifluoromethyl)benzyl)-2-methylquinazolin-4-amine], for which the EC50 in assay [6] (setting [10]) fell in the range of 100 to 1000 nM.

As for `C[C@@H]1COCCN1c1nc(NCc2cccnc2C(F)(F)F)c2cccnc2n1` [Example 211, (R)-2-(3-methylmorpholino)-N-((2-(trifluoromethyl)pyridin-3-yl)methyl)pyrido[2,3-d]pyrimidin-4-amine], the EC50 in assay [6] (setting [10]) fell in the range of 10 to 100 nM. `Cc1cc2ncnc(N(C)C(C)c3ccccc3C(F)(F)F)c2s1` (centres unmarked) [Example 1]: in assay [6] (C6/36, 168 h), the EC50 was 1000 to 100000 nM.

Take `CC(Nc1ncnc2c(C#N)csc12)c1ccccc1C(F)(F)F` (centres unmarked) [Example 108, 4-((1-(2-(trifluoromethyl)phenyl)ethyl)amino)thieno[3,2-d]pyrimidine-7-carbonitrile]: in assay [6] (setting [10]), the EC50 lay within 1000 to 100000 nM. `FC(F)(F)c1ccccc1CNc1nc(N2CCOCC23CCC3)nc2ncccc12` [Example 285, 2-(8-oxa-5-azaspiro[3.5]nonan-5-yl)-N-(2-(trifluoromethyl)benzyl)pyrido[2,3-d]pyrimidin-4-amine]: the EC50 in assay [6] (setting [10]) was in the range of 10 to 100 nM. Same read-out and setting: with `FCC1CCCN(c2nc(NCc3cccnc3C(F)(F)F)c3cccnc3n2)C1` (centres unmarked) [Example 258, 2-(3-(fluoromethyl)piperidin-1-yl)-N-((2-(trifluoromethyl)pyridin-3-yl)methyl)pyrido[2,3-d]pyrimidin-4-amine] the figure was < 0.01 nM.

The values are drawn from patent publication US11518760B2 (Liverpool School of Tropical Medicine, priority 2017, dated 2022).
